Reference: the supplement of paper PMC10307832

Experiments:
Experiment in all cases: relative viability (nuclei count vs DMSO), 5 days (fraction); higher = more cells survive
[1] = compound: C1CCC(CC1)N(CCNCCC2=C3C(=C(C=C2)O)NC(=O)CO3)C(=O)CCNCCC4=CC(=C(C=C4)Cl)Cl [AZ505]
Outline: (§1)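 Five library-drug doses spaced by √10 were pinned onto vehicle-anchored 1536-well plates of lung cancer cell lines that had been kept overnight at 37 °C. Cells went 5 days without medium change, then were fixed, permeabilised and Hoechst-stained together, imaged at 4× and counted by MetaXpress. Viability is the ratio of treated-well to vehicle-well nuclei, taken as a median over plates. Plates required control CV below 25% and at least one doubling.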

[2] = compound: Cn1c(=O)n(-c2ccc(C(C)(C)C#N)cc2)c2c3cc(-c4cnc5ccccc5c4)ccc3ncc21 [Dactolisib]
Outline: as §1

[3] = compound: C1CCC(CC1)N(CCNCCC2=C3C(=C(C=C2)O)NC(=O)CO3)C(=O)CCNCCC4=CC(=C(C=C4)Cl)Cl [AZ505] + CC1(C)CCC(c2ccc(Cl)cc2)=C(CN2CCN(c3ccc(C(=O)NS(=O)(=O)c4ccc(N[C@H](CCN5CCOCC5)CSc5ccccc5)c(S(=O)(=O)C(F)(F)F)c4)cc3)CC2)C1 [Navitoclax] (partner 0.5 µM)
Outline: (§2)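 Relative viability is defined as nuclei in treated wells over nuclei in vehicle wells. Duplicate plates were run and medians reported. Lung cancer cell lines in 1536-well plates were dosed by pin tool one day after seeding, with one drug or with a fixed anchor-drug dose plus five library-drug doses (not always all listed) in √10 steps, and nuclei were counted after 5 days.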

[4] = compound: Cn1c(=O)n(-c2ccc(C(C)(C)C#N)cc2)c2c3cc(-c4cnc5ccccc5c4)ccc3ncc21 [Dactolisib] + N=C(N)NC(=N)NCCc1ccccc1 [Phenformin] (partner 250 µM)
Outline: as §2

Cell Line	relative viability ([1]; 0.08 µM)	relative viability ([1]; 0.253 µM)	relative viability ([1]; 0.8 µM)	relative viability ([1]; 2.53 µM)	relative viability ([1]; 8 µM)	relative viability ([2]; 0.002 µM)	relative viability ([2]; 0.006325 µM)	relative viability ([2]; 0.02 µM)	relative viability ([2]; 0.06325 µM)	relative viability ([2]; 0.2 µM)	relative viability ([3]; first compound 0.08 µM)	relative viability ([3]; first compound 0.253 µM)	relative viability ([3]; first compound 0.8 µM)	relative viability ([3]; first compound 2.53 µM)	relative viability ([3]; first compound 8 µM)	relative viability ([4]; first compound 0.002 µM)	relative viability ([4]; first compound 0.006325 µM)	relative viability ([4]; first compound 0.02 µM)	relative viability ([4]; first compound 0.06325 µM)	relative viability ([4]; first compound 0.2 µM)
LK-2	0.974	1.17	0.941	1.09	1.11	0.905	0.877	0.846	0.433	0.253	0.825	0.952	0.805	0.934	0.842	0.297	0.324	0.248	0.146	0.114
201T	0.962	0.998	0.98	0.974	1.01	1.02	1.01	0.992	0.863	0.636	1.19	1.24	1.17	1.18	1.19	0.476	0.483	0.446	0.414	0.428
HCC-44	0.951	0.945	0.934	1.01	1.02	0.979	1.01	1.03	0.688	0.929	1	0.963	0.927	1.01	0.939	0.274	0.203	0.171	–	0.166
NCI-H596	0.888	0.784	0.972	0.955	0.957	1.09	0.91	0.886	0.558	0.409	0.862	0.806	0.597	0.803	0.87	0.738	0.767	0.627	0.468	0.372
H3255	0.901	1	1.01	1.06	1.03	1.09	0.908	0.91	0.784	0.627	0.439	0.526	0.529	0.698	0.615	0.386	0.354	0.388	0.328	0.348
NCI-H647	0.943	1.01	0.996	0.895	1.02	1.05	0.824	0.691	0.254	0.208	1.02	1.22	1.14	0.97	1.32	0.536	0.449	0.429	0.156	0.105
NCI-H2023	0.901	0.936	0.931	0.923	0.957	0.827	0.875	0.579	0.166	0.12	0.958	0.945	0.997	1.2	0.959	0.43	0.361	0.309	0.14	0.122
NCI-H23	0.848	–	0.874	0.995	1.12	1.05	0.863	0.835	0.372	0.335	0.71	–	0.849	0.819	0.694	0.807	0.795	0.736	0.359	0.316
NCI-H1944	0.949	0.989	1.06	0.861	1.02	1.12	0.973	0.917	0.387	0.402	1.03	1.03	1.03	0.907	1.02	0.235	0.21	0.187	0.138	0.14
NCI-H1793	0.805	0.883	0.83	0.768	0.976	0.807	0.569	0.474	0.242	0.241	0.352	0.405	0.455	0.396	0.428	0.477	0.294	0.228	0.202	0.187
NCI-H520	0.92	1.07	0.86	1.08	1.04	1.01	0.777	0.764	0.243	0.2	1.05	1.23	1.12	1.22	1.07	0.529	0.534	0.369	0.202	0.217
A549	0.864	0.985	0.93	0.968	1.04	0.995	0.871	0.729	0.225	0.182	1.2	1.23	1.14	1.2	1.32	0.183	0.153	0.172	0.103	0.0668
NCI-H460	0.991	0.99	0.966	1	0.976	1.04	0.989	0.984	0.541	0.488	1.02	1.19	0.965	1.11	1.2	0.506	0.474	0.508	0.142	0.0635
EKVX	0.957	0.961	0.952	0.89	1.03	1.02	0.971	0.858	0.691	0.417	0.84	0.961	0.986	0.994	1.03	0.26	0.222	0.229	0.225	0.215
EPLC-272H	0.817	0.812	0.755	0.849	0.92	1.01	0.766	0.76	0.569	0.403	1.07	0.967	1.08	0.934	1.06	0.351	0.25	0.268	0.228	0.259
NCI-H1395	0.901	0.815	0.879	0.903	1.03	0.781	0.852	0.807	0.67	0.577	1.09	1.06	1.06	1.07	1.18	0.445	0.485	0.453	0.377	0.373
